The values that follow are results of earlier work, collected in patent US9238007B2, “Method for the production of a medicament containing tadalafil” (RATIOPHARM GMBH, priority 2007, dated 2016).

For this series the following is noted: according to WO 01/08687.

`CN1CC(=O)N2[C@H](c3ccc4c(c3)OCO4)c3[nH]c4ccccc4c3C[C@@H]2C1=O` [Tadalafil, (6R,12aR)-6-(1,3-benzodioxol-5-yl)-2-methyl-1,2,3,4,6,7,12,12a-octahydropyrazino [2,1 :6,1]pyrido[3,4-b]indole-1,4-dione]: the solubility in water result was “about 2 μg/ml”.
